Reference: US9428505B2, “Hydantoin derivative” (Chugai Seiyaku Kabushiki Kaisha, priority 2012, dated 2016)

What was measured:
[1] = tested on: TPTX rat model; test: Calcemic action in the TPTX rat model; format: in vivo; settings: TPTX rats, oral 30 mg/kg; for change of serum Ca concentration from the Pre-value: up to 24 hours after administration
Experimental: Calcemic Action in the TPTX Rat Model
Four-week old female Crl:CD(SD) rats were obtained from Charles River Japan (Atsugi Breeding Center), and were acclimated to standard laboratory conditions of 20-26° C. and 35-75% humidity for one week. The rats were given tap water and were fed ad libitum with standard rodent chow (CE-2) (CLEA Japan, Inc.) containing 1.1% calcium, 1.0% phosphoric acid, and 250 IU/100 g of vitamin D3.
TPTX was performed on five-week old rats. Some of the individuals were subjected to sham operation (Sham). Individuals whose serum Ca concentration was less than 8 mg/dL on four days after the operation were selected for use as TPTX rats. On five days after the operation, the rats were assigned to eight TPTX groups and one Sham group (n=5, each group) based on their body weight and serum Ca concentration measured on four days after the operation. The solvent alone was orally administered to the Sham group and the TPTX-Vehicle group at a volume of 10 mL/kg. Each test article was orally administered individually to each TPTX test article group by dissolving it in a solvent at a dose of 30 mg/10 mL/kg. The solvent composition was 10% dimethylsulfoxide (Wako Pure Chemical Industries, Ltd.), 10% Cremophor EL (Sigma-Aldrich Japan LLC), 20% hydroxypropyl-β-cyclodextrin (Nihon Shokuhin Kako Co., Ltd.), glycine (Wako Pure Chemical Industries, Ltd.); and the pH was adjusted to 10. Immediately before administration of each sample, Pre-blood collection was performed, and blood collection was carried out at 2, 6, 10, and 24 hours after administration to measure the serum Ca concentration. Each blood collection was carried out from the jugular vein under isoflurane inhalation anesthesia.
Serum Ca measurement: Serum obtained by centrifugation from the collected blood was measured by using an automatic analyzer TBA-120FR (Toshiba Medical Systems Corporation).
For statistical analysis of the animal studies, data are shown as mean±standard error (SE). Statistical analysis were performed by unpaired test of the SAS Preclinical Package (Ver. 5.00.010720, SAS Institute Japan, Tokyo, Japan).

[2] = biological target: human PTH1R (Homo sapiens (Human), UniProt Q03431); test: In vitro cAMP signal activity via the human PTH1R (HKRK-B7 cells); format: cell-based; settings: 100 nM human PTH(1-34) = 100%; for EC20: concentration giving 20% cAMP signaling activity; for EC50: concentration giving 50% cAMP signaling activity
Experimental: Measurement of In Vitro cAMP Signal Activity of Compounds Via the Human PTH1R
Human PTH(1-34) and calcitonin were purchased from Peptide Institute, Inc. (Osaka, Japan), dissolved in 10 mM acetic acid to 1 mM and stored in a −80° C. freezer.
Cells were cultured in Dulbecco's modified Eagle's medium (DMEM) supplemented with 10% fetal bovine serum (Hyclone), 100 units/ml penicillin G and 100 μg/ml streptomycin sulfate (Invitrogen Corp) at 37° C. in a humidified atmosphere containing 5% CO2.
cAMP signal transduction analysis utilized LLC-PK1 cells not expressing the PTH1R, and HKRK-B7 cells, that is, LLC-PK1 cells overexpressing the human PTH1R at 9.5×10^5 receptors/cell (Takasu et al., J. Bone. Miner. Res. 14:11-20, 1999).
HKRK-B7 or LLC-PK1 cells were seeded into a 96-well plate at 1×10^5 cells/well and incubated overnight. On the following day, 50 μl of cAMP assay buffer (DMEM, 2 mM IBMX, 0.2 mg/ml bovine serum albumin, 35 mM Hepes-NaOH, pH 7.4) containing human PTH(1-34) or each compound was added and the plate was placed in a 37° C. incubator. The cells were incubated for 20 minutes. After removing the medium, the cells were washed with 100 μl of cAMP assay buffer once. The plate was placed on dry ice powder to freeze the cells and then removed from the dry ice. The cells were lysed with 40 μl of 50 mM HCl and frozen again on dry ice. The amount of intracellular cAMP produced was measured using a commercially available cAMP EIA kit (Biotrack cAMP EIA system, GE health care).
Analyses were performed using a variable gradient S-shaped dose-response curve equation.

[3] = Metabolic stability using human liver microsomes; format: in vitro ADME; settings: pH 7.4; human liver microsomes 0.5 mg/mL, compound 1 μM, NADPH 1 mM, 37° C.; read-out: Clearance
Experimental: Examination of Metabolic Stability Using Human Liver Microsomes
In 0.1 M phosphate buffer (pH7.4), human liver microsomes were incubated with a compound or a comparative example in the coexistence of NADPH at 37° C. for a specified amount of time. The concentration of the parent compound at each reaction time was measured using LC/MS/MS, and inherent clearance (μL/min/mg protein) was calculated from the slope of the reaction time versus residual rate.
(§1) Compound concentration: 1 μM
Reaction time: 0, 5, 15, and 30 minutes

[4] = Metabolic stability using rat hepatocyte; format: in vitro ADME; settings: for hepatocyte CLint at 1 μM: rat (SD, female) hepatocytes 1×10^6 cells/mL, compound 1 μM, 37° C., read-out: Clearance; for rat hepatocyte metabolic stability compared to Comparative Examples 1, 2, 3, 5, and 6: rat hepatocytes
Experimental: Examination of Metabolic Stability Using Rat Hepatocyte
Liver cells were prepared from the liver of rats (SD, female) by a collagenase perfusion method. A compound of the Examples or a Comparative Example was added, and this was incubated at 37° C. for a specified amount of time, followed by addition of a reaction-stopping solution. The concentration of the parent compound at each reaction time was measured using LC/MS/MS, and inherent clearance (μL/10^6 cells/min) was calculated from the slope of the reaction time versus residual rate.
Cell concentration: 1×10^6 cells/mL
as §1
Medium: Williams' medium E
Reaction-stopping solution: acetonitrile/2-propanol (4/6, v/v)

Sequence of human PTH1R (Q03431 27-593): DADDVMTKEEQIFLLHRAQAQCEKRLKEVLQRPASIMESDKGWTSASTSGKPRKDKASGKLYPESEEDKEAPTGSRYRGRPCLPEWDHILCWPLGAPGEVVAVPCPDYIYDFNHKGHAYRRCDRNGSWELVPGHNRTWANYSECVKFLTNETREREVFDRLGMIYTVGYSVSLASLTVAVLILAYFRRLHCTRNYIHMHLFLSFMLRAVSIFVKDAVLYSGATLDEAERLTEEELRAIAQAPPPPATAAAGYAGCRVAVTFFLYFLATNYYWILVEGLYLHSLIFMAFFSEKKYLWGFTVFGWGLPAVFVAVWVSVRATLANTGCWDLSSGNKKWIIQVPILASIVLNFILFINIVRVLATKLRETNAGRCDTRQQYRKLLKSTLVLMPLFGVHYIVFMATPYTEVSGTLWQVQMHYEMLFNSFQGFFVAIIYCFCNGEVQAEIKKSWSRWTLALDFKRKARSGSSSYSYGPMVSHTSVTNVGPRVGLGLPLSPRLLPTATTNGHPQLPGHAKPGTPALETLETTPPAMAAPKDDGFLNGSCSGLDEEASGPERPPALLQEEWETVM

**Q.** Which “achievement of therapeutic target range of serum Ca concentration of 7.6 to 8.8 mg/dL” value [1] does the source give for `Cc1cc(N2C(=O)CNC2=O)cc(C)c1CCS(=O)(=O)N1CCC2(CC1)N=C(c1cccc(OC(F)(F)F)c1)NC2=O` [Comparative Example 2, reference compound] here?
**A.** could not be achieved

**Q.** What about the “change of serum Ca concentration from the Pre-value” [1] of the same compound?
**A.** smaller positive changes from the Pre-value

**Q.** What about the EC20 [2] of the same compound?
**A.** 3.1 µM

**Q.** And the EC50 [2]?
**A.** 13 µM

**Q.** What about the microsomal CLint at 1 μM [3] of the same compound?
**A.** 61 µL/min/mg

**Q.** What about the hepatocyte CLint at 1 μM [4] of the same compound?
**A.** 5.9 µL/min/1e6 cells

**Q.** Which EC20 [2] does the source give for `Cc1cc(N2C(=O)CNC2=O)cc(C)c1CCS(=O)(=O)N1CCC2(CC1)N=C(c1ccc(F)c(C(F)(F)F)c1)NC2=O` [Comparative Example 3, reference compound] here?
**A.** 2.0 µM

**Q.** What about the EC50 [2] of the same compound?
**A.** 9 µM

**Q.** And the microsomal CLint at 1 μM [3]?
**A.** 74 µL/min/mg

**Q.** What about the hepatocyte CLint at 1 μM [4] of the same compound?
**A.** 22 µL/min/1e6 cells

**Q.** With `CCC1CCC(C2=NC3(CCN(S(=O)(=O)CCc4ccc(N5CC(=O)NC5=O)cc4C)CC3)C(=O)N2)CC1` (centres unmarked) [Comparative Example 4, reference compound] as the compound, how does the EC20 [2] read?
**A.** >505 µM

**Q.** And the microsomal CLint at 1 μM [3]?
**A.** 74 µL/min/mg

**Q.** With `CC[C@H]1CC[C@H](C2=NC3(CCN(S(=O)(=O)CCc4ccc(N5CC(=O)NC5=O)cc4C)CC3)C(=O)N2)CC1` [Comparative Example 4, reference compound] as the compound, how does the EC50 [2] read?
**A.** > 1000 µM

**Q.** Which results are given for `CCC1CCC(C2=NC3(CCN(S(=O)(=O)CCc4ccc(N5C(=O)NC(=O)C5C)cc4C)CC3)C(=O)N2)CC1` (centres unmarked) [Comparative Example 5, reference compound]?
**A.** EC20 [2]: 3.1 µM; microsomal CLint at 1 μM [3]: 112 µL/min/mg; hepatocyte CLint at 1 μM [4]: 22 µL/min/1e6 cells

**Q.** With `CC[C@H]1CC[C@H](C2=NC3(CCN(S(=O)(=O)CCc4ccc(N5C(=O)NC(=O)C5C)cc4C)CC3)C(=O)N2)CC1` (some centres unmarked) [Comparative Example 5, reference compound] as the compound, how does the EC50 [2] read?
**A.** 25 µM

**Q.** For `CCC1CCC(C2=NC3(CCN(S(=O)(=O)CCc4ccc(N5C(=O)NC(=O)C5(C)C)cc4C)CC3)C(=O)N2)CC1` (centres unmarked) [Comparative Example 6, reference compound], which EC20 [2] is on record?
**A.** 3.6 µM

**Q.** And the microsomal CLint at 1 μM [3]?
**A.** 154 µL/min/mg

**Q.** And the hepatocyte CLint at 1 μM [4]?
**A.** 22 µL/min/1e6 cells

**Q.** For `CC[C@H]1CC[C@H](C2=NC3(CCN(S(=O)(=O)CCc4ccc(N5C(=O)NC(=O)C5(C)C)cc4C)CC3)C(=O)N2)CC1` [Comparative Example 6, reference compound], which EC50 [2] is on record?
**A.** 32 µM

**Q.** For `Cc1cc(N2C(=O)NC(=O)C2(C)C)cc(C)c1CCS(=O)(=O)N1CCC2(CC1)N=C(c1ccc(F)c(OC(F)(F)F)c1)NC2=O` [Compound 1, 1-(4-(2-((2-(4-fluoro-3-(trifluoromethoxy)phenyl)-4-oxo-1,3,8-triazaspiro[4.5]deca-1-en-8-yl)sulfonyl)ethyl)-3,5-dimethylphenyl)-5,5-dimethylimidazolidine-2,4-dione], which “achievement of therapeutic target range of serum Ca concentration of 7.6 to 8.8 mg/dL” value [1] is on record?
**A.** could not be achieved

**Q.** And the “change of serum Ca concentration from the Pre-value” [1]?
**A.** smaller positive changes from the Pre-value

**Q.** And the EC20 [2]?
**A.** 1.3 µM

**Q.** What about the EC50 [2] of the same compound?
**A.** 5.8 µM

**Q.** What about the microsomal CLint at 1 μM [3] of the same compound?
**A.** 21 µL/min/mg

**Q.** And the hepatocyte CLint at 1 μM [4]?
**A.** 7.6 µL/min/1e6 cells

**Q.** Which results are given for `Cc1cc(N2C(=O)NC(=O)C2(C)C)cc(C)c1CCS(=O)(=O)N1CCC2(CC1)N=C(c1cccc(Br)c1)NC2=O` [Compound 2, 1-(4-(2-((2-(3-bromophenyl)-4-oxo-1,3,8-triazaspiro[4.5]deca-1-en-8-yl)sulfonyl)ethyl)-3,5-dimethylphenyl)-5,5-dimethylimidazolidine-2,4-dione]?
**A.** EC20 [2]: 2.4 µM; EC50 [2]: 14 µM; microsomal CLint at 1 μM [3]: 38 µL/min/mg; hepatocyte CLint at 1 μM [4]: 3 µL/min/1e6 cells; rat hepatocyte metabolic stability compared to Comparative Examples 1, 2, 3, 5, and 6 [4]: increased

**Q.** With `Cc1cc(N2C(=O)NC(=O)C2(C)C)cc(C)c1CCS(=O)(=O)N1CCC2(CC1)N=C(c1ccc(F)c(C(F)(F)F)c1)NC2=O` [Compound 3, 1-(4-(2-((2-(4-fluoro-3-(trifluoromethyl)phenyl)-4-oxo-1,3,8-triazaspiro[4.5]deca-1-en-8-yl)sulfonyl)ethyl)-3,5-dimethylphenyl)-5,5-dimethylimidazolidine-2,4-dione] as the compound, how does the microsomal CLint at 1 μM [3] read?
**A.** 29 µL/min/mg

**Q.** What about the hepatocyte CLint at 1 μM [4] of the same compound?
**A.** 17 µL/min/1e6 cells

**Q.** With `Cc1cc(N2C(=O)NC(=O)C2(C)C)cc(C)c1CCS(=O)(=O)N1CCC2(CC1)N=C(c1ccc(OC(F)(F)F)c(F)c1)NC2=O` [Compound 4, 1-(4-(2-((2-(3-fluoro-4-(trifluoromethoxy)phenyl)-4-oxo-1,3,8-triazaspiro[4.5]deca-1-en-8-yl)sulfonyl)ethyl)-3,5-dimethylphenyl)-5,5-dimethylimidazolidine-2,4-dione] as the compound, how does the EC20 [2] read?
**A.** 1.6 µM

**Q.** And the EC50 [2]?
**A.** 7.4 µM

**Q.** What about the microsomal CLint at 1 μM [3] of the same compound?
**A.** 27 µL/min/mg

**Q.** What about the hepatocyte CLint at 1 μM [4] of the same compound?
**A.** 2.2 µL/min/1e6 cells

**Q.** What about the “rat hepatocyte metabolic stability compared to Comparative Examples 1, 2, 3, 5, and 6” value [4] of the same compound?
**A.** increased

**Q.** With `Cc1cc(N2C(=O)NC(=O)C2(C)C)cc(C)c1CCS(=O)(=O)N1CCC2(CC1)N=C(c1ccc3c(c1)OC(F)(F)O3)NC2=O` [Compound 5, 1-(4-(2-((2-(2,2-difluorobenzo[d][1,3]dioxol-5-yl)-4-oxo-1,3,8-triazaspiro[4.5]deca-1-en-8-yl)sulfonyl)ethyl)-3,5-dimethylphenyl)-5,5-dimethylimidazolidine-2,4-dione] as the compound, how does the EC20 [2] read?
**A.** 1.7 µM

**Q.** And the EC50 [2]?
**A.** 8.1 µM

**Q.** What about the microsomal CLint at 1 μM [3] of the same compound?
**A.** 37 µL/min/mg

**Q.** And the hepatocyte CLint at 1 μM [4]?
**A.** 1 µL/min/1e6 cells

**Q.** What about the “rat hepatocyte metabolic stability compared to Comparative Examples 1, 2, 3, 5, and 6” value [4] of the same compound?
**A.** increased

**Q.** Which EC20 [2] does the source give for `Cc1cc(N2C(=O)NC(=O)C23CCN(C)CC3)cc(C)c1CCS(=O)(=O)N1CCC2(CC1)N=C(c1ccc(OC(F)(F)F)cc1)NC2=O` [Compound 9, 1-(3,5-dimethyl-4-(2-((4-oxo-2-(4-(trifluoromethoxy)phenyl)-1,3,8-triazaspiro[4.5]deca-1-en-8-yl)sulfonyl)ethyl)phenyl)-8-methyl-1,3,8-triazaspiro[4.5]decane-2,4-dione] here?
**A.** 2.6 µM

**Q.** And the EC50 [2]?
**A.** 12 µM

**Q.** What about the microsomal CLint at 1 μM [3] of the same compound?
**A.** 28 µL/min/mg

**Q.** What about the hepatocyte CLint at 1 μM [4] of the same compound?
**A.** 1.8 µL/min/1e6 cells

**Q.** What about the “rat hepatocyte metabolic stability compared to Comparative Examples 1, 2, 3, 5, and 6” value [4] of the same compound?
**A.** increased

**Q.** For `Cc1cc(N2C(=O)NC(=O)C23CCCC3)cc(C)c1CCS(=O)(=O)N1CCC2(CC1)N=C(c1cccc(C(F)(F)F)c1)NC2=O` [Compound 12, 1-(3,5-dimethyl-4-(2-((4-oxo-2-(3-(trifluoromethyl)phenyl)-1,3,8-triazaspiro[4.5]deca-1-en-8-yl)sulfonyl)ethyl)phenyl)-1,3-diazaspiro[4.4]nonane-2,4-dione], which microsomal CLint at 1 μM [3] is on record?
**A.** 63 µL/min/mg
